Assay results published in PubChem BioAssay (NCI).
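Protocol summary: plate cells (96-well), add compound at 5 concentrations, incubate 48 h, interpolate endpoints linearly. GI50 is the concentration that inhibits growth by half. Definition used: TGI = concentration required for complete inhibition of growth.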

Key:
Test in all cases: growth of human tumour cells (NCI), 48 h
[1] = test system: A498 renal
[2] = test system: BT-549 breast
[3] = test system: HS 578T breast
[4] = test system: M14 melanoma
[5] = test system: MDA-MB-435
[6] = test system: MOLT-4 leukemia
[7] = test system: OVCAR-5 ovarian
[8] = test system: SF-295 CNS
[9] = test system: SK-MEL-5 melanoma
[10] = test system: U251 CNS

O=c1[nH]c(=O)c2cc3cc(C4CC(O)C(CO)O4)ccc3cc2[nH]1 (stereo not given)
GI50 [1]: > 100 µM | TGI [1]: > 100 µM | GI50 [2]: > 100 µM | TGI [2]: > 100 µM | GI50 [3]: > 100 µM | TGI [3]: > 100 µM | GI50 [4]: > 100 µM | TGI [4]: > 100 µM | GI50 [5]: > 100 µM | TGI [5]: > 100 µM | GI50 [6]: > 100 µM | TGI [6]: > 100 µM | GI50 [7]: > 100 µM | TGI [7]: > 100 µM | GI50 [8]: > 100 µM | TGI [8]: > 100 µM | GI50 [9]: > 100 µM | TGI [9]: > 100 µM | GI50 [10]: > 100 µM | TGI [10]: > 100 µM

Cc1cc(O)cc(C)c1/C=C/c1cncc(C(N)=O)c1
GI50 [1]: 1.65 µM | TGI [1]: 17.4 µM | GI50 [2]: 4.51 µM | TGI [2]: > 25 µM | GI50 [3]: 1.72 µM | TGI [3]: 11.2 µM | GI50 [4]: 1.2 µM | TGI [4]: 7.75 µM | GI50 [5]: 0.538 µM | TGI [5]: 1.77 µM | GI50 [6]: 3.27 µM | TGI [6]: > 25 µM | GI50 [7]: 12.1 µM | TGI [7]: > 25 µM | GI50 [8]: 2.9 µM | TGI [8]: > 25 µM | GI50 [9]: 1.11 µM | TGI [9]: > 25 µM | GI50 [10]: 1.49 µM | TGI [10]: > 25 µM

C=C1C(=O)O[C@H]2C[C@@H]1CC/C(C)=C/CC/C(C)=C/CC[C@@]2(C)O
GI50 [1]: 43.8 µM | TGI [1]: > 100 µM | GI50 [2]: 24.2 µM | TGI [2]: 59.9 µM | GI50 [3]: 48 µM | TGI [3]: > 100 µM | GI50 [4]: 44.4 µM | TGI [4]: > 100 µM | GI50 [5]: 57.5 µM | TGI [5]: > 100 µM | GI50 [6]: 24.5 µM | TGI [6]: > 100 µM | GI50 [7]: > 100 µM | TGI [7]: > 100 µM | GI50 [8]: > 100 µM | TGI [8]: > 100 µM | GI50 [9]: 37.7 µM | TGI [9]: > 100 µM | GI50 [10]: 53 µM | TGI [10]: > 100 µM

Cc1nc(-c2nc(-c3ccc(OC(F)(F)F)cc3)no2)nn1Cc1cccc(N2CCC(S(C)(=O)=O)CC2)c1
GI50 [1]: < 0.0198 µM | TGI [1]: 17.1 µM | GI50 [2]: 1.07 µM | TGI [2]: 38.6 µM | GI50 [3]: > 36.9 µM | TGI [3]: > 82.1 µM | GI50 [4]: 5.66 µM | TGI [4]: > 100 µM | GI50 [5]: 2.9 µM | TGI [5]: > 100 µM | GI50 [6]: 3.3 µM | TGI [6]: > 100 µM | GI50 [7]: > 65.8 µM | TGI [7]: > 100 µM | GI50 [8]: 0.0227 µM | TGI [8]: > 77 µM | GI50 [9]: < 0.01 µM | TGI [9]: 1.06 µM | GI50 [10]: > 39.3 µM | TGI [10]: > 100 µM

CN1CCC2(CC1)NC(=O)c1c(c3ccc(Cl)c(Cl)c3n1C)C2C#N (stereo not given)
GI50 [1]: 9.05 µM | TGI [1]: 24.1 µM | GI50 [2]: 2.62 µM | TGI [2]: 12.5 µM | GI50 [3]: 7.63 µM | TGI [3]: 45.6 µM | GI50 [4]: 2.73 µM | TGI [4]: 8.5 µM | GI50 [5]: 2.29 µM | TGI [5]: 6.58 µM | GI50 [6]: 4.52 µM | TGI [6]: > 28 µM | GI50 [7]: 8.67 µM | TGI [7]: 24.3 µM | GI50 [8]: 10 µM | TGI [8]: 25.3 µM | GI50 [9]: 2.11 µM | TGI [9]: 5.18 µM | GI50 [10]: 11.1 µM | TGI [10]: 26.2 µM

c1ccc2cc(NCNc3ccc4ccccc4c3)ccc2c1
TGI [1]: 45.6 µM | TGI [2]: 53.2 µM | TGI [3]: > 100 µM | TGI [4]: 29.1 µM | TGI [5]: 3.32 µM | TGI [6]: 29.9 µM | TGI [7]: 51.5 µM | TGI [8]: 33.9 µM | TGI [9]: 18.5 µM | TGI [10]: 93.6 µM

C[C@@H](NC(=O)/C(C#N)=C/c1ccc([N+](=O)[O-])cc1)c1ccccc1
GI50 [1]: 4.25 µM | TGI [1]: 8.49 µM | GI50 [2]: 1.75 µM | TGI [2]: 3.55 µM | GI50 [3]: 5.92 µM | TGI [3]: > 32.9 µM | GI50 [4]: 2.05 µM | TGI [4]: 4.42 µM | GI50 [5]: 2.7 µM | TGI [5]: 7.63 µM | GI50 [6]: 3.02 µM | TGI [6]: 7.3 µM | GI50 [7]: 1.96 µM | TGI [7]: 4.06 µM | GI50 [8]: 2.25 µM | TGI [8]: 5.49 µM | GI50 [9]: 1.94 µM | TGI [9]: 3.95 µM | GI50 [10]: 1.79 µM | TGI [10]: 3.44 µM

CC1(C)CC[C@]2(C(=O)O)CC[C@]3(C)C(=CC[C@@H]4[C@@]5(C)C[C@H](O)[C@H](O)[C@@](C)(C(=O)O)[C@@H]5CC[C@]43C)[C@@H]2C1
TGI [1]: > 100 µM | TGI [2]: > 100 µM | TGI [3]: > 100 µM | TGI [4]: > 100 µM | TGI [5]: > 100 µM | TGI [6]: > 100 µM | TGI [7]: > 100 µM | TGI [8]: > 100 µM | TGI [9]: > 100 µM | TGI [10]: > 100 µM

O=C(/C(=C/c1ccc([N+](=O)[O-])cc1)SCc1ccc(Cl)cc1)c1ccc(F)cc1
GI50 [1]: 13.9 µM | TGI [1]: 38.4 µM | GI50 [2]: 2.06 µM | TGI [2]: 4.56 µM | GI50 [3]: 2.42 µM | TGI [3]: 7.68 µM | GI50 [4]: 3.38 µM | TGI [4]: 16.1 µM | GI50 [5]: 2.23 µM | TGI [5]: 5.87 µM | GI50 [6]: 2.83 µM | TGI [6]: > 100 µM | GI50 [7]: 3 µM | TGI [7]: 12.1 µM | GI50 [8]: 4.02 µM | TGI [8]: 14.4 µM | GI50 [9]: 2.85 µM | TGI [9]: 8.87 µM | GI50 [10]: 1.74 µM | TGI [10]: 3.17 µM

N/C(=N/N=C/c1ccccc1)N/N=C\c1ccccc1
GI50 [1]: 6.03 µM | TGI [1]: > 100 µM | GI50 [2]: 7.2 µM | TGI [2]: 46.4 µM | GI50 [3]: 3.73 µM | TGI [3]: 42.5 µM | GI50 [4]: 3.4 µM | TGI [4]: 29.8 µM | GI50 [5]: 1.76 µM | TGI [5]: 6.61 µM | GI50 [6]: 4.39 µM | TGI [6]: 47.3 µM | GI50 [7]: 19.4 µM | TGI [7]: > 100 µM | GI50 [8]: 3.96 µM | TGI [8]: 32.4 µM | GI50 [9]: 3.38 µM | TGI [9]: 13.3 µM | GI50 [10]: 5.08 µM | TGI [10]: 70.9 µM

CC(N)(/C=C/c1ccccc1)C(=O)O (stereo not given)
TGI [1]: > 100 µM | TGI [2]: > 100 µM | TGI [3]: > 100 µM | TGI [4]: > 100 µM | TGI [5]: > 100 µM | TGI [6]: > 100 µM | TGI [7]: > 100 µM | TGI [8]: > 100 µM | TGI [9]: > 100 µM | TGI [10]: > 100 µM
